Test results reported in patent US20260315452A1, “PROTEASE INHIBITORS AND USES THEREOF” (priority 2023, published 2026).

Key:
SARS-CoV-2 = test: Anti-SARS-CoV-2 activity in A549 cells expressing the human ACE2 receptor (inhibition of SARS-CoV-2 replication); format: cell-based; conditions: Severe acute respiratory syndrome coronavirus 2, A549-ACE2, 24 h, read-out: Antiviral Activity (EC50)
SARS-CoV-2 3CLpro = SARS-CoV-2 3CLpro (Severe acute respiratory syndrome coronavirus 2, UniProt P0DTD1); test: biochemical; conditions: inhibition of SARS-CoV-2 3CLpro; 15 nM 3CLpro, 25 μM fluorogenic substrate, 37° C.; read-out: Inhibitory Activity (IC50)

O=C(N[C@@H]1CCNC1)c1cc(Br)cc([N+](=O)[O-])c1N[C@H]1CN(C(=O)c2cncc3ccccc23)CCC1(F)F [Compound 46, 5-bromo-2-(((S)-4,4-difluoro-1-(isoquinoline-4-carbonyl)piperidin-3-yl)amino)-3-nitro-N-((R)-pyrrolidin-3-yl) benzamide]
EC50 (SARS-CoV-2): < 100 nM
IC50 (SARS-CoV-2 3CLpro): < 100 nM

CN(C)C1CN(C(=O)c2cc(Br)cc([N+](=O)[O-])c2N[C@H]2CN(C(=O)c3cncc4ccccc34)CCC2(F)F)C1 [Compound 47]
EC50 (SARS-CoV-2): < 100 nM
IC50 (SARS-CoV-2 3CLpro): < 100 nM

NC(=O)c1cc(Br)cc([N+](=O)[O-])c1N[C@@H]1CCCC[C@@H]1NC(=O)c1cncc2ccccc12 [Compound 53, N-((1S,2R)-2-((4-bromo-2-carbamoyl-6-nitrophenyl)amino)cyclohexyl)isoquinoline-4-carboxamide]
EC50 (SARS-CoV-2): 1000 to 10000 nM
IC50 (SARS-CoV-2 3CLpro): 100 to 1000 nM

CNC(=O)c1cc(Br)cc([N+](=O)[O-])c1N[C@@H]1CCCC[C@@H]1NC(=O)c1cncc2ccncc12 [Compound 55, N-((1S, 2R)-2-((4-bromo-2-(methylcarbamoyl)-6-nitrophenyl)amino)cyclohexyl)-2,6-naphthyridine-4-carboxamide]
EC50 (SARS-CoV-2): 100 to 1000 nM
IC50 (SARS-CoV-2 3CLpro): 100 to 1000 nM

O=C(NCC(F)(F)F)c1cc(Br)cc([N+](=O)[O-])c1N[C@@H]1CCCC[C@@H]1NC(=O)c1cncc2ccccc12 [Compound 59, N-((1S, 2R)-2-((4-bromo-2-nitro-6-((2,2,2-trifluoroethyl)carbamoyl)phenyl)amino)cyclohexyl)isoquinoline-4-carboxamide]
EC50 (SARS-CoV-2): 100 to 1000 nM
IC50 (SARS-CoV-2 3CLpro): 100 to 1000 nM

CC(NC(=O)c1cc(Br)cc([N+](=O)[O-])c1N[C@@H]1CCCC[C@@H]1NC(=O)c1cncc2ccccc12)C(F)(F)F (stereo partly drawn) [Compound 60, N-((1S, 2R)-2-((4-bromo-2-nitro-6-((1,1,1-trifluoropropan-2-yl)carbamoyl)phenyl)amino)cyclohexyl)isoquinoline-4-carboxamide]
EC50 (SARS-CoV-2): 100 to 1000 nM
IC50 (SARS-CoV-2 3CLpro): 100 to 1000 nM

O=C(NCC(F)F)c1cc(Br)cc([N+](=O)[O-])c1N[C@@H]1CCCC[C@@H]1NC(=O)c1cncc2ccccc12 [Compound 61, N-((IS, 2R)-2-((4-bromo-2-((2,2-difluoroethyl)carbamoyl)-6-nitrophenyl)amino)cyclohexyl)isoquinoline-4-carboxamide]
EC50 (SARS-CoV-2): < 100 nM
IC50 (SARS-CoV-2 3CLpro): < 100 nM

CNC(=O)c1cc(Br)cc([N+](=O)[O-])c1N[C@H]1CN(C(=O)c2cncc3ccccc23)CC(F)(F)C1 [Compound 62, (R)-5-bromo-2-((5,5-difluoro-1-(isoquinoline-4-carbonyl)piperidin-3-yl)amino)-N-methyl-3-nitrobenzamide]
EC50 (SARS-CoV-2): 100 to 1000 nM
IC50 (SARS-CoV-2 3CLpro): 100 to 1000 nM

CNC(=O)c1cc(Br)cc([N+](=O)[O-])c1N[C@@H]1CCN(C(=O)c2cncc3ccccc23)C1 [Compound 64, (R)-5-bromo-2-((1-(isoquinoline-4-carbonyl)pyrrolidin-3-yl)amino)-N-methyl-3-nitrobenzamide]
EC50 (SARS-CoV-2): 100 to 1000 nM
IC50 (SARS-CoV-2 3CLpro): 100 to 1000 nM

CNC(=O)c1cc(Br)cc([N+](=O)[O-])c1N1CCC2(CCN(C(=O)c3cncc4ccccc34)C2)C1 (stereo not drawn) [Compound 66, 5-bromo-2-(7-(isoquinoline-4-carbonyl)-2,7-diazaspiro[4.4]nonan-2-yl)-N-methyl-3-nitrobenzamide]
EC50 (SARS-CoV-2): 100 to 1000 nM
IC50 (SARS-CoV-2 3CLpro): 100 to 1000 nM

CNC(=O)c1cc(Br)cc([N+](=O)[O-])c1N1CC(F)(F)C2(CCN(C(=O)c3cncc4ccccc34)C2)C1 (stereo not drawn) [Compound 67, 5-bromo-2-(4,4-difluoro-7-(isoquinoline-4-carbonyl)-2,7-diazaspiro[4.4]nonan-2-yl)-N-methyl-3-nitrobenzamide]
EC50 (SARS-CoV-2): 100 to 1000 nM
IC50 (SARS-CoV-2 3CLpro): 100 to 1000 nM

CNC(=O)c1cc(Br)cc([N+](=O)[O-])c1N[C@@H]1CCOC[C@@H]1NC(=O)c1cncc2ccccc12 [Compound 70, N-((3R, 4R)-4-((4-bromo-2-(methylcarbamoyl)-6-nitrophenyl)amino)tetrahydro-2H-pyran-3-yl)isoquinoline-4-carboxamide]
EC50 (SARS-CoV-2): 100 to 1000 nM
IC50 (SARS-CoV-2 3CLpro): 100 to 1000 nM
